*1 amine or outer side, *2 acyl side, *3 side chain or, on linkers, in order; H or OH if unused. Where a SMILES comes first, the peptide text is derived from it. Bridges are numbered along the chain shown (N, C = ends). Roman numbers before positions name the chains, in order. [ ]: non-standard residue; d: D form. Actinocin(9to1) = Cc1c2oc3c(C)ccc(C(=O)[*:1])c3nc-2c(C(=O)[*:2])c(N)c1=O; NMeV = CN[C@H](C(=O)O)C(C)C; Sar = CNCC(=O)O
Columns and labels:
Type in all cases: cell-based
[1] = system: tyrosinase activity in mouse melanoma cells; test: Tyrosinase activity in Cloudman S91/mouse melanoma cells, earlier studies; settings: MSH-stimulated tyrosinase activity
Method: The MSH response in these cells can be mimicked by treatment of cells with either cAMP analogues such as dbcAMP (dibutyryl cyclic AMP) or 8-bromo cAMP, or with inhibitors of phosphodiesterase activity such as theophylline and IBMX. […] Although it is clear that cAMP is the second messenger for MSH action, tyrosinase activity is not altered by direct incubation with activated protein kinase A, nor is tyrosinase directly phosphorylated by this kinase. Even though cAMP levels rise within minutes of treatment of cells with MSH, no increases in tyrosinase activity are detectable until 6-9 hours after exposure of cells to hormone. […] In an effort to further delineate the cellular pathways involved in the MSH stimulation of tyrosinase activity, we examined the transcriptional and translational requirements for MSH action. […] However, other studies have shown that tyrosinase may be activated in melanoma cells treated with MSH. Discussed herein are studies carried out to examine the contributions of induction and activation to the overall MSH stimulation of tyrosinase activity in melanoma cells. Further, studies on the regulation of tyrosinase in normal human melanocytes are also described and compared to those from melanoma cells.
Even more elaborate models involving an activation of tyrosinase via internalized MSH receptors have been proposed. Evidence for tyrosinase inhibitors in mouse melanocytes and melanoma has been reported by many investigators, but no such molecules have yet been isolated.

[2] = system: tyrosinase activity in human melanocytes; test: Tyrosinase responses in human melanocytes (Table 6); settings: Table 6 text
Method: (§1) The mouse melanoma cell lines used to study the effects of lysosomotropic agents herein were the Cloudman S91 cell line (ATCC no. CCL 53.1) and two subclones of this line developed in our laboratory, the amelanotic line, AM-7, and a melanotic line, MEL-11A. All melanoma cell lines were grown in Ham's F-10 nutrient medium supplemented with 10% horse serum, penicillin (100 units/ml), and streptomycin (100 μg/ml). The normal human melanocyte cell strains used in this study were derived from foreskins of either neonares or from boys 2-6 years old. Human melanocyte cultures were grown in Ham's F-10 nutrient medium supplemented with 10% horse serum, 5% fetal bovine serum (FBS), 32 nM TPA (12-O-tetradecanoylphorbol 13-acetate), 10^-4 M IBMX(3-isobutyl-1-methylxanthine), penicillin (100 units/ml), and streptomycin (100 μg/ml).
(§2) To determine tyrosinase activity in situ in either melanoma cells or in human melanocyte cultures, the tyrosine hydroxylase activity of the enzyme was determined. Cells were seeded into 60-mm culture dishes at 2×10^5 cells/dish and allowed to attach overnight. The medium was then exchanged for the appropriate growth medium supplemented with 1 μCi/ml of [^3 H]tyrosine (L-ring-3,5-^3 H]-tyrosine, DuPont New England Nuclear), and with hormones, where indicated. Cells were grown in labeled medium for 24 hours, and at this time, the medium was removed and assayed for the presence of ^3 H2 O using the charcoal absorption method of Pomerantz. Tyrosinase activity in cell homogenates was determined by sonicating cell pellets in 0.1-M sodium phosphate buffer (pH 6.8) and then incubating 50-μl aliquots in 0.5 ml of a reaction mixture containing 0.1-mM tyrosine, 2 μCi/ml of [^3 H]tyrosine, 0.1-mM L-DOPA (dihydroxyphenylalanine), and 0.1 mM PMSF (phenylmethylsulfonyl fluoride) at 37° C. for 2 hours. Reactions were terminated by the addition of 1 ml of charcoal (10% w/v in 0.1-N HCl). Samples were centrifuged, and the supernatants removed for determination of the amount of ^3 H2 O produced.
Hormone responsiveness in human melanocyte cell cultures were examined (for these studies, melanocytes derived from skin type III were used). […] Tyrosinase activity and melanin content typically double with a 48-hour exposure to IBMX. […] The steroid hormones, for the most part, caused little, if any, change in tyrosinase activity at the concentrations used.

[3] = system: tyrosinase activity in MEL-11A cells; test: Tyrosinase activity in melanotic mouse melanoma clone MEL-11A; settings: MSH 10^-7 M or ammonium chloride 10 mM; 24 h; FIG. 4 bottom
Method: as §1
(§3) To determine tyrosinase activity in situ in either melanoma cells or in human melanocyte cultures, the tyrosine hydroxylase activity of the enzyme was determined. […] Tyrosinase activity in cell homogenates was determined by sonicating cell pellets in 0.1-M sodium phosphate buffer (pH 6.8) and then incubating 50-μl aliquots in 0.5 ml of a reaction mixture containing 0.1-mM tyrosine, 2 μCi/ml of [^3 H]tyrosine, 0.1-mM L-DOPA (dihydroxyphenylalanine), and 0.1 mM PMSF (phenylmethylsulfonyl fluoride) at 37° C. for 2 hours. […]

[4] = system: melanin in human melanocytes; test: Melanin content in human melanocytes
Method: as §1
The amount of melanin in melanoma cells or in melanocytes was determined by incubating cell pellets in 2 ml of 1-N NaOH for 48 hours at 37° C. and then measuring the solubilized melanin at 400 nm.
(§4) Dose/response parameters for ammonium chloride action were determined. […] Since tyrosinase is the rate-limiting enzyme for melanin synthesis, the stimulation of this enzyme by ammonium chloride should lead to increased melanin content of stimulated cells. […] Ammonium chloride increased tyrosinase activity in melanocytes from white-skinned individuals twenty-fold within 24 hours and by this time melanin contents had increased two-fold. Two other lysosomotropic agents, monensin and nigericin, were tested for their effects on tyrosinase activity. […] Thus, lysosomotropic agents have the ability to stimulate tyrosinase activity and melanin production in human melanocytes derived from white-skinned individuals, and to reduce melanin production in melanocytes from black-skinned people.

[5] = system: tyrosinase activity in human melanocytes from black individuals; test: Tyrosinase activity in human melanocytes from black skin; settings: 10 mM
Method: as §1, with “Human melanocyte cultures were grown in Ham's F-10 nutrient medium supplemented with 10% horse serum, 5% fetal bovine serum (FBS), 32 nM TPA (12-O-tetradecanoylphorbol 13-acetate), 10^-4 M IBMX(3-isobutyl-1-methylxanthine), penicillin (100 units/ml), and streptomycin (100 μg/ml).” left out
as §3
Dose/response parameters for ammonium chloride action were determined. […]

[6] = system: tyrosinase activity in AM-7 cells; test: Tyrosinase activity in amelanotic mouse melanoma clone AM-7
Method: as §1, §3

[7] = system: tyrosinase activity in mouse melanoma cells; test: Tyrosinase responses in mouse melanoma cells (Table 6)
Method: as §1
as §2, with “produced. […]” for “produced.”

[8] = system: tyrosinase activity in human melanocytes from white-skinned individuals; test: Tyrosinase activity in human melanocytes from white skin
Method: as §1, §2, §4

[9] = within 24 hours, white-skinned individuals

α-amanitin
hormonal induction of enzyme activity [1]: completely blocked

Cl.N [Ammonium chloride, ammonium chloride]
tyrosinase activity in human melanocytes [2]: stimulates tyrosinase activity
increase in tyrosinase activity [3]: four-fold increase
melanin versus untreated cells ([4]; 10 mM, 3 days, cell strain 69W, FIG. 7): twice as much melanin than untreated cells
increase in melanin contents [4, 9]: two-fold
Tyrosinase Activity ([5]; 48 hours, cell strain #90A6, FIG. 5): depressed
tyrosinase activity in highly melanized melanocytes ([5]; black skin types, footnote c of Table 6): markedly inhibite
stimulation of tyrosinase activity in presence of cycloheximide ([6]; 10 mM ammonium chloride with or without cycloheximide, data not shown): stimulation occurred in cells treated with or without cycloheximide
increase in tyrosinase activity ([6]; 10 mM ammonium chloride, 24 h, FIG. 4 top): two-fold increase
Effect on Tyrosinase Activity, Mouse Melanoma ([7]; Table 6, 10^-7 M except IBMX 10^-4 M, theophylline 1 mM, ammonium chloride 10 mM, A23187 not given): ++ (>300%)
tyrosinase activity in mouse melanoma cells ([7]; Table 6 text): stimulates tyrosinase activity
Tyrosinase Activity ([8]; 10 mM, 48 hours, cell strain #84W, FIG. 5): markedly elevated
tyrosinase activity in melanocytes derived from white skin ([8]; 10 mM, footnote c of Table 6): stimulates tyrosinase activity
concentration of maximal stimulation of tyrosinase activity ([8]; cell strain 69W, 48 hours, FIG. 6): 7.5 mM
stimulation of tyrosinase activity ([8]; cell strain 69W, up to four hours, FIG. 8): effective in stimulating tyrosinase activity
increase in tyrosinase activity [8, 9]: twenty-fold

C[C@@H]1C[C@@H]([C@H](O)CC2CC(=O)NC(=O)C2)C(=O)[C@@H](C)C1 [cycloheximide]
hormonal induction of enzyme activity [1]: completely blocked

Cc1c2oc3c(C)ccc(C(=O)N[C@@H]4C(=O)N[C@H](C(C)C)C(=O)N5CCC[C@H]5C(=O)N(C)CC(=O)N(C)[C@@H](C(C)C)C(=O)O[C@@H]4C)c3nc-2c(C(=O)N[C@@H]2C(=O)N[C@H](C(C)C)C(=O)N3CCC[C@H]3C(=O)N(C)CC(=O)N(C)[C@@H](C(C)C)C(=O)O[C@@H]2C)c(N)c1=O [actinomycin D] (I: T[dV]P[Sar][NMeV] / II: T[dV]P[Sar][NMeV]; ester I:1-I:C, II:1-II:C; linker I:N-II:N via Actinocin(9to1))
hormonal induction of enzyme activity [1]: completely blocked

Source: patent US5554359A, “Pigmentation enhancer and method” (priority 1994, dated 1996)
